{"source": "patent US6211373A", "about": "“Phenyl urea antagonists of the IL-8 receptor” (SmithKline Beecham Corporation, priority 1998, dated 2001)", "biological_target": "T1, recombinant human IL-8 type b receptor (IL-8 Rb, Type II, permissive receptor) (Homo sapiens, UniProt P25025)", "T1 construct": "membranes", "T1 sequence (P25025 1-360)": "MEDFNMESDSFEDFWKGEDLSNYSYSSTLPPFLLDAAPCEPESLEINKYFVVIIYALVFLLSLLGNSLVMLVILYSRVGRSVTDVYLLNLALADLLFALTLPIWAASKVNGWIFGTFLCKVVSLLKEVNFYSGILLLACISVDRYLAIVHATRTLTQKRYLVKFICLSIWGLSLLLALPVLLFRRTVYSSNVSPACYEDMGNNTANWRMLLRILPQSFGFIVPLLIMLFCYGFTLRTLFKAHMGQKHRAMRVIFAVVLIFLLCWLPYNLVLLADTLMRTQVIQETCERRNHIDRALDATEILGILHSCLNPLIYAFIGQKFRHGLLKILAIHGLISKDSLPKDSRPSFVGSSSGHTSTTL", "assay": "Receptor binding assay, [125I] IL-8, permissive model", "text": "[^125 I] IL-8 (human recombinant) was obtained from Amersham Corp., Arlington Heights, Ill., with specific activity 2000 Ci/mmol. Gro-a was obtained from NEN-New England Nuclear. All other chemicals were of analytical grade. High levels of recombinant human IL-8 type a and b receptors were individually expressed in Chinese hamster ovary cells as described previously (Holmes, et al., Science, 1991, 253, 1278). The Chinese hamster ovary membranes were homogenized according to a previously described protocol (Haour, et al., J Biol Chem., 249 pp 2195-2205 (1974)). Except that the homogenization buffer was changed to 10 mM Tris-HCL, 1 mM MgSO4, 0.5 mM EDTA (ethylene-diaminetetra-acetic acid), 1 mMPMSF (a-toluenesulphonyl fluoride), 0.5 mg/L Leupeptin, pH 7.5. Membrane protein concentration was determined using Pierce Co. micro-assay kit using bovine serum albumin as a standard. All assays were performed in a 96-well micro plate format. Each reaction mixture contained ^125 I IL-8 (0.25 nM) or ^125 I Gro-a and 0.5 μg/mL of IL-8Ra or 1.0 μg/mL of IL-8Rb membranes in 20 mM Bis-Trispropane and 0.4 mM Tris HCl buffers, pH 8.0, containing 1.2 mM MgSO4, 0.1 mM EDTA, 25 mM NaCl and 0.03% CHAPS. […] The filter was then dried and counted on the Betaplate liquid scintillation counter. […]"}
{"compound": "Cc1cc(Cl)ccc1NC(=O)Nc1ccccc1C(=O)O", "note": "[1-(2-Carboxyphenyl)-3-(4-chloro-2-methylphenyl)urea]", "values": [{"measurement": "level at which found to be active (IL-8 receptor inhibition)", "value": "about 75 μg/mL"}]}
